Patent US20230295106A1 (priority 2019, published 2023)
pEC50, pIC50: −log10 of the molar value. Like-named read-outs stand apart in the source and are kept apart here.

Legend:
5-HT2A [1] = biological target: T1, 5-HT2A (Homo sapiens, UniProt P28223); assay: Serotonin 5-HT2A in vitro cellular IPOne agonism assay (HTRF); format: cell-based; design: host or cells: CHO-K1
5-HT2A [2] = biological target: T1, 5-HT2A; assay: Serotonin 5-HT2A in vitro radioligand binding competition assay ([3H]-DOI); design: Epics Therapeutics S.A. (Belgium) FAST-0505B; host or cells: membrane extracts
rat cortical neurons = assay: Neurite outgrowth in primary neuronal cultures assay; format: cell-based; design: key: A: Statistically significant mean increase as a percent of DMSO control at 10 μM or less; B: No statistically significant mean increase as a percent of DMSO control at 10 μM or less; conditions: 72 h, vs DMSO control, at 10 μM or less
From the text: Neurite Outgrowth in Primary Neuronal Cultures Assay. Changes in the pattern of neurite outgrowth have been implicated in psychiatric and neurodegenerative disorders as well as traumatic injuries. The discovery of new compounds that can positively affect neuritogenesis are important for developing new therapeutics for neurological diseases. Measurement of neurite outgrowth of rat cortical neurons using an automated image-based assay was used to determine the neuroplastic effects of the compounds of the present invention. The neurite outgrowth assay was performed at Neurofit SAS (France) as described below.
Pregnant Wistar rats (Janvier; France) were used for the study. They were delivered 6 days before their use. Upon arrival at Neurofit animal facility, they were housed one per cage and maintained in a room with controlled temperature (21-22° C.) and a reversed light-dark cycle (12 h/12 h; lights on: 17:30-05:30; lights off: 05:30-17:30) with food and water available ad libitum.
Female Wistar rats of 17 days gestation were killed by cervical dislocation and the fetuses were removed from the uterus. Their brains were placed in ice-cold medium of Leibovitz (L15, Gibco, Fisher bioblock, France). Cortices were dissected and meninges were carefully removed. The cortical neurons were dissociated by trypsinization for 30 min at 37° C. (trypsin-EDTA, Gibco) in presence of 0.1 mg/ml DNAse I (Roche, France). The reaction was stopped by addition of Dulbecco's Modified Eagle Medium (DMEM; Gibco) with 10% of fetal bovine serum (FBS; Gibco). The suspension was triturated with a 10-ml pipette and using a needle syringe 21 G and centrifuged at 350×g for 10 min at room temperature. The pellet of dissociated cells was resuspended in a medium consisting of Neurobasal (Gibco) supplemented with 2% B27 supplement (Gibco), 0.5 mM L-Glutamine (Gibco), an antibiotic-antimicotic mixture. Viable cells were counted in a Neubauer cytometer using the trypan blue exclusion test (Sigma). Cells were seeded at a density of 10000 cells per well in 96-well plate (Costar) precoated with poly-L-lysine. Test compound at different concentrations were added to the cultures. Donepezil (positive control) was tested at 250 nM.
After 72 h (3 days) of plating, cultures were fixed with paraformaldehyde in PBS (4%, Sigma) for 30 min at 4° C. Then, cells were successively permeabilized with 0.1% Triton X100 for 30 min, saturated with PBS containing 3% of BSA and were incubated 1 h with anti-beta III tubulin antibody (Sigma) at 1/10000 in PBS containing 0.5% of BSA. Cells were washed three times with PBS containing 0.5% of BSA, and they were incubated 1 h with goat anti-mouse antibody coupled with AF488 (Invitrogen A11001) diluted at 1/1000 in PBS containing 0.5% of BSA. Finally, nuclei were staining with DAPI 1 mg/ml at 1/1000 in PBS containing 0.5% of BSA. After rinsing with PBS, the plate was filmed and neurite networks were examined and analyzed using High-Content Screening (CellInsight, Thermo Scientific). The average number of neurites per neuron and the average total length of neurites per neuron were the main parameters analyzed. Analysis of data was performed using analysis of variance (ANOVA). The Fisher's Protected Least Significant Difference test was used for multiple comparisons. A p value <0.05 was considered significant. The software used is StatView 5.0 from SAS Institut.

[3] = 5-HT2A IPOne Agonism Activity, CHO-K1 cells, 60 min at 37° C.
[4] = 5-HT2A Radioligand Binding Activity, competition with [3H]-DOI, membrane extracts

T1 sequence (P28223 whole entry): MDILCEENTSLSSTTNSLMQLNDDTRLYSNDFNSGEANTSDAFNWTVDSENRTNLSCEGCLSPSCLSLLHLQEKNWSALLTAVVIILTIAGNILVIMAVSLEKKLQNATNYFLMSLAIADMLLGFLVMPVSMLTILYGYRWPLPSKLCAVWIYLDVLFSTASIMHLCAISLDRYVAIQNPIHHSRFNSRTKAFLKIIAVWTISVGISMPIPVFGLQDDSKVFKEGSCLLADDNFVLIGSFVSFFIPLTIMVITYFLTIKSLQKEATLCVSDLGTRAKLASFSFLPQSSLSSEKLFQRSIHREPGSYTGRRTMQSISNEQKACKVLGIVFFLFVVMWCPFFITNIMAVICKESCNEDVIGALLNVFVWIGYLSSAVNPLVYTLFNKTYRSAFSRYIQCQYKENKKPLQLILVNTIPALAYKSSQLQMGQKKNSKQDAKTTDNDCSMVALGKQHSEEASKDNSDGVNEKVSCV

SMILES | pEC50 (5-HT2A [1]) | pIC50 (5-HT2A [2]) | Increase in Neurite Length (rat cortical neurons) | Increase in Neurite Number (rat cortical neurons) | pEC50 (5-HT2A [1]; [3]) | pIC50 (5-HT2A [2]; [4]) | pEC50 (5-HT2A [1]; read-out: 5-HT2A IPOne Agonism Activity, CHO-K1 cells, 60 min at 37° C.) | pIC50 (5-HT2A [2]; read-out: 5-HT2A Radioligand Binding Activity, competition with [3H]-DOI, membrane extracts)
NC1Cc2c(F)ccc3ccn(c23)C1 (stereo not shown) [Compound 19, 7-fluoro-5,6-dihydro-4H-pyrrolo[3,2,1-ij]quinolin-5-amine] | < 5.00 | < 5.00 | – | – | – | – | – | –
CCN(CC)C(=O)[C@@H]1C=C(c2cccc3[nH]ccc23)CN(C)C1 (single isomer, unassigned) [Compound 11, N,N-diethyl-5-(1H-indol-4-yl)-1-methyl-1,2,3,6-tetrahydropyridine-3-carboxamide] | – | – | A | A | – | – | – | –
NC1Cc2cc(Cl)cc3ccn(c23)C1 (stereo not shown) [Compound 21, 8-chloro-5,6-dihydro-4H-pyrrolo[3,2,1-ij]quinolin-5-amine] | 5.00 to 6.00 | 5.00 to 6.00 | – | – | – | – | – | –
CCN(CC)C(=O)[C@@H]1C=C(c2cc(OC)cc(OC)c2)CN(C)C1 (single isomer, unassigned) [Compound 6, 5-(3,5-dimethoxyphenyl)-N,N-diethyl-1-methyl-1,2,3,6-tetrahydropyridine-3-carboxamide] | – | – | A | A | 6.00 to 7.00 | 5.00 to 6.00 | – | –
NC1Cc2c(Cl)ccc3ccn(c23)C1 (stereo not shown) [Compound 23, 7-chloro-5,6-dihydro-4H-pyrrolo[3,2,1-ij]quinolin-5-amine] | 5.00 to 6.00 | 5.00 to 6.00 | – | – | – | – | – | –
CCN(CC)C1Cc2cccc3ccn(c23)C1 (stereo not shown) [Compound 16, N,N-diethyl-5,6-dihydro-4H-pyrrolo[3,2,1-]quinolin-5-amine] | 6.00 to 7.00 | 6.00 to 7.00 | A | A | – | – | – | –
CN(C)C1Cc2cccc3ccn(c23)C1 (single isomer, unassigned) [Compound 14, N,N-dimethyl-5,6-dihydro-4H-pyrrolo[3,2,1-ij]quinolin-5-amine] | < 5.00 | 6.00 to 7.00 | A | A | – | – | – | –
CCN(CC)C(=O)[C@@H]1C=C(c2cccc3[nH]ccc23)CN(C)C1 (single isomer, unassigned) [Compound 12, N,N-diethyl-5-(1H-indol-4-yl)-1-methyl-1,2,3,6-tetrahydropyridine-3-carboxamide] | – | – | A | A | – | – | – | –
CCN(CC)C(=O)[C@@H]1C=C(c2cccc(OC)c2)CN(C)C1 (single isomer, unassigned) [Compound 10, N,N-diethyl-5-(3-methoxyphenyl)-1-methyl-1,2,3,6-tetrahydropyridine-3-carboxamide] | – | – | A | A | 6.00 to 7.00 | 6.00 to 7.00 | – | –
CCN(CC)C(=O)[C@@H]1C=C(c2cc(OC)cc(OC)c2)CN(C)C1 (single isomer, unassigned) [Compound 5, 5-(3,5-dimethoxyphenyl)-N,N-diethyl-1-methyl-1,2,3,6-tetrahydropyridine-3-carboxamide] | – | – | A | A | 7.00 to 8.00 | 6.00 to 7.00 | – | –
CCN(CC)C(=O)[C@@H]1C=C(c2ccccc2OC)CN(C)C1 (single isomer, unassigned) [Compound 8, N,N-diethyl-5-(2-methoxyphenyl)-1-methyl-1,2,3,6-tetrahydropyridine-3-carboxamide] | – | – | A | A | 6.00 to 7.00 | 6.00 to 7.00 | – | –
COc1cc2c3c(ccn3CC(N)C2)c1 (stereo not shown) [Compound 25, 8-methoxy-5,6-dihydro-4H-pyrrolo[3,2,1-ij]quinolin-5-amine] | < 5.00 | < 5.00 | – | – | – | – | – | –
CCN(CC)C(=O)[C@@H]1C=C(c2cccc(OC)c2)CN(C)C1 (single isomer, unassigned) [Compound 9, N,N-diethyl-5-(3-methoxyphenyl)-1-methyl-1,2,3,6-tetrahydropyridine-3-carboxamide] | – | – | A | A | 7.00 to 8.00 | 7.00 to 8.00 | – | –
NC1Cc2cccc3ccn(c23)C1 (stereo not shown) [Compound 13, 5,6-dihydro-4H-pyrrolo[3,2,1-ij]quinolin-5-amine] | < 5.00 | 5.00 to 6.00 | A | A | – | – | – | –
NC1Cc2cccc3[nH]cc(c23)C1 (stereo not shown) [Compound 27, 1,3,4,5-tetrahydrobenzo[cd]indol-4-amine] | 5.00 to 6.00 | 5.00 to 6.00 | A | A | – | – | – | –
NC1Cc2cc(F)cc3ccn(c23)C1 (stereo not shown) [Compound 17, 8-fluoro-5,6-dihydro-4H-pyrrolo[3,2,1-ij]quinolin-5-amine] | < 5.00 | 5.00 to 6.00 | – | – | – | – | – | –
CCN(CC)C(=O)[C@@H]1C=C(c2ccccc2OC)CN(C)C1 (single isomer, unassigned) [Compound 7, N,N-diethyl-5-(2-methoxyphenyl)-1-methyl-1,2,3,6-tetrahydropyridine-3-carboxamide] | – | – | B | B | 7.00 to 8.00 | 7.00 to 8.00 | – | –
CN(C)C1Cc2cccc3ccn(c23)C1 (single isomer, unassigned) [Compound 15, N,N-dimethyl-5,6-dihydro-4H-pyrrolo[3,2,1-ij]quinolin-5-amine] | – | – | B | B | – | – | < 5.00 | 6.00 to 7.00
